Data: US20080269251A1, “Substituted Pyrazinone Derivatives as Alpha2C-Adrenoreceptor Antagonists” (priority 2005, published 2008)

How the values were obtained:
5HT-transporter = biological target: T1, 5HT-transporter (Homo sapiens, UniProt P31645); experiment: Binding experiment for the 5HT-transporter ([3H]paroxetine, human platelet membranes); conditions: [3H]paroxetine 0.5 nM, 60 min at 25° C., read-out: h-5HTT pIC50 (converted)
T1 construct: Human platelet membranes (Oceanix Biosciences Corporation, Hanover, Md., USA) were thawed; tissue Oceanix Biosciences Corporation, Hanover, Md., USA; host or cells: human platelet membranes
T1 sequence (P31645 whole entry): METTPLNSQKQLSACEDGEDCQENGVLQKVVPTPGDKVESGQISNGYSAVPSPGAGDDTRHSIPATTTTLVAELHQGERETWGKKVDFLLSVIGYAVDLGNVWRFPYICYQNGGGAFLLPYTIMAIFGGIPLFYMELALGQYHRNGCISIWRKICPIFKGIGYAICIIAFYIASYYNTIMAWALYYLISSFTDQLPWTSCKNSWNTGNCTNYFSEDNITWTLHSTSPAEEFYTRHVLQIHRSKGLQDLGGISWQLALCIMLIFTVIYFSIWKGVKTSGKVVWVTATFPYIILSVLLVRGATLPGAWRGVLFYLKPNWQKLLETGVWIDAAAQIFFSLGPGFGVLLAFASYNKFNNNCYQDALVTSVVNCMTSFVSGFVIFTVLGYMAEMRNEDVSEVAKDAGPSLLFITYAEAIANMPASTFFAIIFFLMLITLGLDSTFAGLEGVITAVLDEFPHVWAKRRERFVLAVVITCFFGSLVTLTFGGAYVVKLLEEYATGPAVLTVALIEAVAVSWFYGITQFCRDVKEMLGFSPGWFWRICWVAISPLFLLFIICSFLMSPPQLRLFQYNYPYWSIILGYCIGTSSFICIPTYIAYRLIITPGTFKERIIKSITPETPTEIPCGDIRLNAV
Summary of the method: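 Competition binding of [3H]paroxetine to human platelet membranes in Tris-HCl 50 mM with 120 mM NaCl and 5 mM KCl; bound radioligand separated by GF/B filtration and counted.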

[1] = biological target: T2, human adrenergic-α2C receptor (Homo sapiens, UniProt P18825); experiment: Radioligand binding experiment for hα2C-adrenoceptor ([3H]raulwolscine); conditions: [3H]raulwolscine 1 nM, 60 minutes at 25° C.; read-out: h-α2C pIC50 (converted)
T2 construct: expressed in transfected cells; host or cells: CHO cells, stably transfected; membrane preparation
T2 sequence (P18825 1-462): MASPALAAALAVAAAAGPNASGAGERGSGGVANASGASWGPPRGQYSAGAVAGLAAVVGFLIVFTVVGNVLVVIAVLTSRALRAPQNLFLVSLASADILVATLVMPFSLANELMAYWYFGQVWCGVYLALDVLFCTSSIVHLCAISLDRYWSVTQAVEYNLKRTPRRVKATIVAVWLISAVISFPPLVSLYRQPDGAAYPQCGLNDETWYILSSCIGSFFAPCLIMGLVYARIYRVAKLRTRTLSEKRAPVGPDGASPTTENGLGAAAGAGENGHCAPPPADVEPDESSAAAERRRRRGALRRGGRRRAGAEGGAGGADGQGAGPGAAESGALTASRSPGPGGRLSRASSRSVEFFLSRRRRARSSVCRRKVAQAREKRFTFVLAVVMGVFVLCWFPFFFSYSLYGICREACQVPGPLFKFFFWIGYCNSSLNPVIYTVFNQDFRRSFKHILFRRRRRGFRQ
Summary of the method: (§1)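 CHO membranes expressing human α2A or α2C receptors were incubated with 1 nM [^3H]raulwolscine for 60 min at 25° C in glycylglycine 25 mM, pH 8.0, then filtered. Nonspecific binding was defined with 1 μM oxymetazoline for α2A and 1 μM spiroxatrine for α2C. pIC50 came from sigmoidal competition curves.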

[2] = biological target: T3, human adrenergic-α2A receptor (Homo sapiens, UniProt P08913); experiment: Radioligand binding experiment for hα2A-adrenergic receptor ([3H]raulwolscine); conditions: [3H]raulwolscine 1 nM, 60 minutes at 25° C.; read-out: h-α2A pIC50 (converted)
T3 construct: expressed in transfected cells; host or cells: CHO cells, stably transfected; membrane preparation
T3 sequence (P08913 1-465): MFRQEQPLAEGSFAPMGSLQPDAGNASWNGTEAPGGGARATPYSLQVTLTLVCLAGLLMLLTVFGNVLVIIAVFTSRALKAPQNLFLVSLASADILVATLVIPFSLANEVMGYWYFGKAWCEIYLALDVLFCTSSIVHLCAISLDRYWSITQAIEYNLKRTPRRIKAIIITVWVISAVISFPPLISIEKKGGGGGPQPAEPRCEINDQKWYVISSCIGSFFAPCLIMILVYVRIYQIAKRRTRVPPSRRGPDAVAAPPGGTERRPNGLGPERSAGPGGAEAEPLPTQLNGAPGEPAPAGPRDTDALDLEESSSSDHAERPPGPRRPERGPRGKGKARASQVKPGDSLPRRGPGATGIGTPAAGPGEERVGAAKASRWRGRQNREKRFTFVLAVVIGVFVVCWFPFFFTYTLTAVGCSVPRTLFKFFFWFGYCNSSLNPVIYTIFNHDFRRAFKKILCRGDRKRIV
Summary of the method: as §1

Row | SMILES | IC50 (5HT-transporter) [nM] | IC50 [1] [nM] | IC50 [2] [nM]
1 | O=c1c(NC2CCN(Cc3ccc4ccccc4c3)CC2)nccn1Cc1cc2ccccc2cn1 [6-10] | 126 | 63.1 | 251
2 | O=c1[nH]ncn1CCCn1ccnc(NC2CCN(Cc3ccc4ccccc4c3)CC2)c1=O [6-11] | 126 | 100 | 794
3 | O=c1c(NC2CCN(Cc3ccc4ccccc4c3)CC2)nccn1-c1ccc2c(c1)CN(CCO)CC2 [6-12] | 39.8 | 5.01 | 31.6
4 | CC(=O)N1CCc2ccc(-n3ccnc(NC4CCN(Cc5ccc6ccccc6c5)CC4)c3=O)cc2C1 [6-13] | 25.1 | 10 | 126
5 | Cn1ccnc1CN1CCc2ccc(-n3ccnc(NC4CCN(Cc5ccc6ccccc6c5)CC4)c3=O)cc2C1 [6-15] | 10 | 3.98 | 100
6 | O=c1c(NC2CCN(Cc3ccc4ccccc4c3)CC2)nccn1-c1ccccn1 [6-16] | 158 | 25.1 | 63.1
7 | O=c1[nH]c(-c2cccc(Br)c2)c(Cl)nc1NC1CCN(Cc2ccc3ccccc3c2)CC1 [7-01] | 501 | 794 | 1580
8 | O=c1[nH]c(-c2cccc(CNCCF)c2)c(Cl)nc1NC1CCN(Cc2ccc3ccccc3c2)CC1 [7-03] | 794 | 200 | 794
9 | O=c1[nH]c(-c2cccc(CNCC3CCCO3)c2)c(Cl)nc1NC1CCN(Cc2ccc3ccccc3c2)CC1 (stereo not drawn) [7-04] | 398 | 126 | 631
10 | O=c1[nH]c(-c2cccc(CN3CCCCC3)c2)c(Cl)nc1NC1CCN(Cc2ccc3ccccc3c2)CC1 [7-05] | 631 | 126 | 794
11 | O=c1[nH]c(-c2cccc(CN3CCC(F)CC3)c2)c(Cl)nc1NC1CCN(Cc2ccc3ccccc3c2)CC1 [7-06] | 1000 | 251 | 1260
12 | O=c1[nH]c(-c2cccc(CN3CCOCC3)c2)c(Cl)nc1NC1CCN(Cc2ccc3ccccc3c2)CC1 [7-08] | 1260 | 501 | 1580
13 | CN1CCN(Cc2cccc(-c3[nH]c(=O)c(NC4CCN(Cc5ccc6ccccc6c5)CC4)nc3Cl)c2)CC1 [7-10] | 200 | 100 | 631
14 | COc1ccc(Cn2c(-c3ccc(CO)cc3)c(Cl)nc(NC3CCN(Cc4ccc5ccccc5c4)CC3)c2=O)cc1 [8-03] | 126 | 251 | 200
15 | COC(=O)c1ccc(-c2c(Cl)nc(NC3CCN(Cc4ccc5ccccc5c4)CC3)c(=O)n2Cc2ccc(OC)cc2)cc1 [8-04] | 794 | 1260 | 1260
16 | COc1ccc(Cn2c(-c3cccc(CNCC4CCCO4)c3)c(Cl)nc(NC3CCN(Cc4ccc5ccccc5c4)CC3)c2=O)cc1 (stereo not drawn) [8-07] | 100 | 158 | 501
17 | COc1ccc(Cn2c(-c3ccc(CNCC4CCCO4)cc3)c(Cl)nc(NC3CCN(Cc4ccc5ccccc5c4)CC3)c2=O)cc1 (stereo not drawn) [8-08] | 63.1 | 200 | 316
18 | COc1ccc(Cn2c(-c3cccc(CN4CCCCC4)c3)c(Cl)nc(NC3CCN(Cc4ccc5ccccc5c4)CC3)c2=O)cc1 [8-09] | 50.1 | 50.1 | 100
19 | COc1ccc(Cn2c(-c3cccc(CN4CCC(O)CC4)c3)c(Cl)nc(NC3CCN(Cc4ccc5ccccc5c4)CC3)c2=O)cc1 [8-10] | 31.6 | 79.4 | 158
20 | COc1ccc(Cn2c(-c3ccc(CN4CCC(O)CC4)cc3)c(Cl)nc(NC3CCN(Cc4ccc5ccccc5c4)CC3)c2=O)cc1 [8-11] | 31.6 | 39.8 | 126
21 | COc1ccc(Cn2c(-c3cccc(CN4CCC(F)CC4)c3)c(Cl)nc(NC3CCN(Cc4ccc5ccccc5c4)CC3)c2=O)cc1 [8-12] | 126 | 79.4 | 100
22 | COc1ccc(Cn2c(-c3cccc(N4CCC(N5CCCC5)CC4)c3)c(Cl)nc(NC3CCN(Cc4ccc5ccccc5c4)CC3)c2=O)cc1 [8-13] | 126 | 126 | 501
